Reference: PubChem BioAssay (NCI)
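A five-concentration, 48-hour dose response in 96-well plates underlies each endpoint, interpolated linearly between surrounding concentrations. Abbreviation: GI50, concentration required for 50% inhibition of growth. Definition used: TGI = concentration required for complete inhibition of growth.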

Key:
Assay in all cases: NCI anticancer screen, dose series, 48 h
SF-539 CNS = system: SF-539 CNS
U251 CNS = system: U251 CNS
EKVX NSCLC = system: EKVX NSCLC
HS 578T breast = system: HS 578T breast
SK-MEL-2 melanoma = system: SK-MEL-2 melanoma
SNB-75 CNS = system: SNB-75 CNS
786-0 renal = system: 786-0 renal
SF-268 CNS = system: SF-268 CNS
M14 melanoma = system: M14 melanoma
BT-549 breast = system: BT-549 breast
HOP-62 NSCLC = system: HOP-62 NSCLC
OVCAR-4 ovarian = system: OVCAR-4 ovarian
SNB-19 CNS = system: SNB-19 CNS
KM12 colon = system: KM12 colon
SK-OV-3 ovarian = system: SK-OV-3 ovarian
NCI-H522 lung = system: NCI-H522 lung
UACC-257 melanoma = system: UACC-257 melanoma
MALME-3M melanoma = system: MALME-3M melanoma
A498 renal = system: A498 renal
SK-MEL-28 melanoma = system: SK-MEL-28 melanoma
SF-295 CNS = system: SF-295 CNS
MCF7 breast = system: MCF7 breast
SW-620 colon = system: SW-620 colon
SN12C renal = system: SN12C renal
OVCAR-3 ovarian = system: OVCAR-3 ovarian
PC-3 prostate = system: PC-3 prostate
A549 NSCLC = system: A549 NSCLC
HOP-92 NSCLC = system: HOP-92 NSCLC
IGROV1 ovarian = system: IGROV1 ovarian
SR leukemia = system: SR leukemia
COLO 205 colon = system: COLO 205 colon
HCT-116 colon = system: HCT-116 colon
TK-10 renal = system: TK-10 renal
NCI-H23 lung = system: NCI-H23 lung
MDA-MB-231 breast = system: MDA-MB-231 breast
T-47D breast = system: T-47D breast
MDA-MB-435 = system: MDA-MB-435
SK-MEL-5 melanoma = system: SK-MEL-5 melanoma
HCC-2998 colon = system: HCC-2998 colon
DU-145 prostate = system: DU-145 prostate
CAKI-1 renal = system: CAKI-1 renal
UACC-62 melanoma = system: UACC-62 melanoma
K-562 leukemia = system: K-562 leukemia
ACHN renal = system: ACHN renal
NCI-H226 lung = system: NCI-H226 lung
OVCAR-8 ovarian = system: OVCAR-8 ovarian
HCT-15 colon = system: HCT-15 colon
OVCAR-5 ovarian = system: OVCAR-5 ovarian
RPMI-8226 leukemia = system: RPMI-8226 leukemia
NCI-H460 lung = system: NCI-H460 lung
NCI/ADR-RES ovarian = system: NCI/ADR-RES ovarian
HT29 colon = system: HT29 colon
UO-31 renal = system: UO-31 renal
MOLT-4 leukemia = system: MOLT-4 leukemia
CCRF-CEM leukemia = system: CCRF-CEM leukemia
LOX IMVI melanoma = system: LOX IMVI melanoma
HL-60(TB) leukemia = system: HL-60(TB) leukemia
RXF 393 renal = system: RXF 393 renal

## CCCCCCCCSC1=CC(=O)c2nc3ccccc3c3ccnc1c23
SF-539 CNS
  GI50: > 100 µM
  TGI: > 100 µM
U251 CNS
  GI50: 92.6 µM
  TGI: > 100 µM
EKVX NSCLC
  GI50: > 100 µM
  TGI: > 100 µM
HS 578T breast
  GI50: > 100 µM
  TGI: > 100 µM
SK-MEL-2 melanoma
  GI50: > 100 µM
  TGI: > 100 µM
SNB-75 CNS
  GI50: > 100 µM
  TGI: > 100 µM
786-0 renal
  GI50: > 100 µM
  TGI: > 100 µM
SF-268 CNS
  GI50: 24.7 µM
  TGI: > 100 µM
M14 melanoma
  GI50: > 100 µM
  TGI: > 100 µM
BT-549 breast
  GI50: > 100 µM
  TGI: > 100 µM
HOP-62 NSCLC
  GI50: > 100 µM
  TGI: > 100 µM
OVCAR-4 ovarian
  GI50: 19.1 µM
  TGI: > 100 µM
SNB-19 CNS
  GI50: > 100 µM
  TGI: > 100 µM
KM12 colon
  GI50: > 100 µM
  TGI: > 100 µM
SK-OV-3 ovarian
  GI50: > 100 µM
  TGI: > 100 µM
NCI-H522 lung
  GI50: 62.8 µM
  TGI: > 100 µM
UACC-257 melanoma
  GI50: 41.1 µM
  TGI: > 100 µM
MALME-3M melanoma
  GI50: 83.3 µM
  TGI: > 100 µM
A498 renal
  GI50: > 100 µM
  TGI: > 100 µM
SK-MEL-28 melanoma
  GI50: 42.7 µM
  TGI: > 100 µM
SF-295 CNS
  GI50: > 100 µM
  TGI: > 100 µM
MCF7 breast
  GI50: 20.2 µM
  TGI: 57.4 µM
SW-620 colon
  GI50: > 100 µM
  TGI: > 100 µM
SN12C renal
  GI50: 14 µM
  TGI: > 100 µM
OVCAR-3 ovarian
  GI50: 19 µM
  TGI: > 100 µM
PC-3 prostate
  GI50: 77.9 µM
  TGI: > 100 µM
A549 NSCLC
  GI50: 83.2 µM
  TGI: > 100 µM
HOP-92 NSCLC
  GI50: 80 µM
  TGI: > 100 µM
IGROV1 ovarian
  GI50: > 100 µM
  TGI: > 100 µM
SR leukemia
  GI50: 22.7 µM
  TGI: > 100 µM
COLO 205 colon
  GI50: > 100 µM
  TGI: > 100 µM
HCT-116 colon
  GI50: 43.1 µM
  TGI: > 100 µM
TK-10 renal
  GI50: > 100 µM
  TGI: > 100 µM
NCI-H23 lung
  GI50: 58.2 µM
  TGI: > 100 µM
MDA-MB-231 breast
  GI50: 5.94 µM
  TGI: > 100 µM
T-47D breast
  GI50: 84.5 µM
  TGI: > 100 µM
MDA-MB-435
  GI50: 41.7 µM
  TGI: > 100 µM
SK-MEL-5 melanoma
  GI50: 98.8 µM
  TGI: > 100 µM
HCC-2998 colon
  GI50: > 100 µM
  TGI: > 100 µM
DU-145 prostate
  GI50: > 100 µM
  TGI: > 100 µM
CAKI-1 renal
  GI50: 59.8 µM
  TGI: > 100 µM
UACC-62 melanoma
  GI50: 42 µM
  TGI: > 100 µM
K-562 leukemia
  GI50: 27.4 µM
  TGI: > 100 µM
ACHN renal
  GI50: 52.2 µM
  TGI: > 100 µM
NCI-H226 lung
  GI50: 0.544 µM
  TGI: 96.8 µM
OVCAR-8 ovarian
  GI50: > 100 µM
  TGI: > 100 µM
HCT-15 colon
  GI50: 38.4 µM
  TGI: > 100 µM
OVCAR-5 ovarian
  GI50: > 100 µM
  TGI: > 100 µM
RPMI-8226 leukemia
  GI50: 60.2 µM
  TGI: > 100 µM
NCI-H460 lung
  GI50: 26.3 µM
  TGI: > 100 µM
NCI/ADR-RES ovarian
  GI50: 97.4 µM
  TGI: > 100 µM
HT29 colon
  GI50: > 100 µM
  TGI: > 100 µM
UO-31 renal
  GI50: 49.5 µM
  TGI: > 100 µM
MOLT-4 leukemia
  GI50: 6.03 µM
  TGI: > 100 µM
CCRF-CEM leukemia
  GI50: 60.7 µM
  TGI: > 100 µM
LOX IMVI melanoma
  GI50: > 100 µM
  TGI: > 100 µM
HL-60(TB) leukemia
  GI50: 16.3 µM
  TGI: > 100 µM

## C/C(=C\CO)CC/C=C(\C)CNc1c(F)c(F)c(F)c(F)c1F
SF-539 CNS
  TGI: 40.3 µM
U251 CNS
  TGI: 59.2 µM
EKVX NSCLC
  TGI: 98.3 µM
HS 578T breast
  TGI: 74.6 µM
SK-MEL-2 melanoma
  TGI: 48.6 µM
SNB-75 CNS
  TGI: 66.3 µM
786-0 renal
  TGI: > 100 µM
SF-268 CNS
  TGI: 67.3 µM
M14 melanoma
  TGI: > 100 µM
BT-549 breast
  TGI: 22.3 µM
HOP-62 NSCLC
  TGI: 68 µM
OVCAR-4 ovarian
  TGI: > 100 µM
SNB-19 CNS
  TGI: 75 µM
KM12 colon
  TGI: 77.5 µM
SK-OV-3 ovarian
  TGI: > 100 µM
NCI-H522 lung
  TGI: 46.3 µM
UACC-257 melanoma
  TGI: 47.4 µM
MALME-3M melanoma
  TGI: 57.2 µM
SK-MEL-28 melanoma
  TGI: 41.1 µM
SF-295 CNS
  TGI: 52.9 µM
MCF7 breast
  TGI: 70.1 µM
SW-620 colon
  TGI: > 100 µM
SN12C renal
  TGI: 41.2 µM
OVCAR-3 ovarian
  TGI: 52.8 µM
PC-3 prostate
  TGI: 58.5 µM
A549 NSCLC
  TGI: 94.8 µM
IGROV1 ovarian
  TGI: > 100 µM
SR leukemia
  TGI: 74.9 µM
COLO 205 colon
  TGI: 67.1 µM
HCT-116 colon
  TGI: > 100 µM
TK-10 renal
  TGI: 85.7 µM
NCI-H23 lung
  TGI: > 100 µM
MDA-MB-231 breast
  TGI: 40.5 µM
T-47D breast
  TGI: > 100 µM
MDA-MB-435
  TGI: 53.8 µM
SK-MEL-5 melanoma
  TGI: 31.9 µM
HCC-2998 colon
  TGI: 59.8 µM
DU-145 prostate
  TGI: > 100 µM
CAKI-1 renal
  TGI: > 100 µM
UACC-62 melanoma
  TGI: 37.9 µM
K-562 leukemia
  TGI: 92 µM
ACHN renal
  TGI: > 100 µM
NCI-H226 lung
  TGI: 75.1 µM
OVCAR-8 ovarian
  TGI: 38 µM
HCT-15 colon
  TGI: 85.4 µM
OVCAR-5 ovarian
  TGI: > 100 µM
RPMI-8226 leukemia
  TGI: 43.8 µM
NCI-H460 lung
  TGI: > 100 µM
NCI/ADR-RES ovarian
  TGI: 86.2 µM
HT29 colon
  TGI: 52.3 µM
UO-31 renal
  TGI: 80.8 µM
RXF 393 renal
  TGI: 65.3 µM
MOLT-4 leukemia
  TGI: > 100 µM
CCRF-CEM leukemia
  TGI: > 100 µM
LOX IMVI melanoma
  TGI: 80.8 µM
HL-60(TB) leukemia
  TGI: 65.8 µM
